Experiments:
Balb/c mice = test: Ear angiogenesis assay; assay type: in vivo; details: 750 nM along with VEGF and bFGF
Description: (A) Control (0.1% DMSO), (B) sunitinib and (C) Compound 1 at their indicated concentration dissolved in 100 μL of 1×PBS injected into the […] of Balb/c mice (5 mice/treatment group). After 7 days of treatment ears were harvested, cryo-sectioned at […] thickness. CD31 immunostained and photographed under inverted microscope at 20× magnification. (B) Vasculature was quantified by counting total macro and micro blood vessels. Plotted graph is representative of four independent experiments and are represented as mean±SEM with significant difference compared with control at *p<0.05.
Sterile 1×PBS having mouse VEGF (50 ng/mL), bFGF (50 ng/mL), Heparin (10 mg/mL) and sunitinib (2 μM) as a positive control along with compound 1 (750 nM) as a test compound were injected subcutaneously into the ear of 8- to 12-week old male Balb/c mice. Equal volume of 1×PBS with all components except drug was used as a control and was injected in contra lateral ear. After 6 days, mice were sacrificed and the ears were excised and embedded in OCT for cryo-sectioning. Frozen sections of […] sizes were immunostained with endothelial cell markers anti CD31 and anti PECAM 1 antibody. This was quantified by total number of blood vessels count.

HCT116 colon tumor = HCT116 colon tumor model in nude mice; assay type: in vivo
Description: FIG. 12 represents Compound 1 inhibited tumor growth in vivo. Tumor sizes were recorded every alternate day by Vernier caliper measurements and calculated as [4/3*[…]*(length/2)*(width/2)]. (A) Nude mice with induced HCT116 tumor were given vehicle to the control group, sunitinib at (40 mg/kg) as a standard drug given orally and Compound 1 at (25 mg/kg) through IP route for 21 days and tumor regression was calculated for all groups. (B) Nude Mice with induced HCT116 colon tumor were given both, sunitinib and Compound 1 at (25 mg/kg) intra-muscularly for 15 days after attaining a tumor size of 100 mm^3, tumor volume reduction for treated groups were calculated and compared with control. Data are expressed as means±S.E.M. (6 mice/group) with significant difference compared with control at p<0.0001.
HCT 116 (Human colon cancer cell line) cells were trypsinised and the pellet was dissolved in ice chilled 1×PBS. HCT 116 cells suspension to a concentration of (1*10^6) cells in 50 μL PBS solution, were left on ice with occasional agitation. Mice were anaesthetized with ketamine: xylazine (100:10 mg/kg), abdominal side area was shaved and sterilized using 70% ethanol. 50 μL of cell suspension was injected slowly subcutaneously to all the mice. After 2 days, booster dose of tumor cells was injected to all mice as performed previously. The growth of the tumor was measured by using vernier caliper on day 2, 4, 6, 8, 10, 12, 14, 16 18, 20, 23 and presented in the form of tumor volume (mm^3)=[4/3*π*(long axis/2)*(short axis/2)]. After attaining a volume of 100 mm^3 of tumor size, all mice were distributed equally (n=6−8) in 3 groups of controls received vehicle (Olive oil). Sutent (25 mg/kg) as a positive control was given orally and Compound 1 (25 mg/kg) dissolved in olive oil was injected intra-muscularly for 15 days and the tumor size regression was measured on every alternate day as described previously. Post 15 days of treatment, mice from all groups were sacrificed and tumor was excised out and processed further for immunohistochemistry and molecular analysis.

HUVECs = test: 3D angiogenesis assay (cytodex beads in fibrin matrix); assay type: cell-based, human
Description: (A) ECs were seeded on fibrinogen matrix and were treated with sunitinib and compound 1 at indicated concentrations. Post 5 days of incubation pictures were taken at 10× using inverted microscope. (B) Tube length was quantified using Leica QWin software and graph was plotted taking control (0.01% DMSO) treated cells. Data are represented as mean±SEM with significant difference from control at *p<0.05, **p<0.01 and ***p<0.001.
Anti-angiogenic effect of Compound 1 was further validated by 3D angiogenesis assay (FIG. 5).
Endothelial cells (ECs) were trypsinized and then coated on cytodex beads at the rate of 1500 cells per bead in 5% DMEM medium at 37° C. for 4 h by rotating it gently on IP rotor. Fibrinogen (2 mg/mL) and Aprotonin (40 U/μL) were added to the ECs coated beads and this was subsequently added to the 96 well plate pre-coated with […] (10 U/μL) and incubated for 15 min. Vehicle control in 2.5% DMEM media with different doses of Compound 1 (500 nM, 250 nM, 125 nM and 75 nM) were used to observe the anti-angiogenic effect of Compound 1 on 3D angiogenesis pattern. Post 3 days of incubation the results were observed and photographs were taken under inverted microscope (Olympus, Centre Valley, Pa., USA) and relative tubule lengths were measured using Leica Q-Win software version 3.5.1. (Leica Microsystems, Switzerland).

chick CAM = test: CAM (chick chorio-allantoic membrane) assay; assay type: in vivo; details: 500 nM and 250 nM
Description: (A) Chick CAM assays were used to observe the effect of Compound 1 on angiogenesis in vivo. 1 mm^2 window was made in 8 days old chicken eggs to expose the CAM, and a gelatin disc ([…]) treated with vehicle (0.1% DMSO), sunitinib and Compound 1 at a indicated concentrations were placed on the CAM surface. Post 4 days of incubation, the discs and associated CAM were photographed and excised out, for hemoglobin estimation by drapkin's reagent. (B) Blood vessel density was calculated and Hb. concentration was measured and representative graph was plotted for the control and treatment group and data are represented as mean±SEM with significant difference from control at *p<0.05, **p<0.01 and ***p<0.001.
The eggs were incubated horizontally for 3 days at 37° C. in a 60% humidified atmosphere, using a hybridization incubator (combi-SV 12) with one hour scheduled rotation. Post 3 days of incubation, 2-3 mL of albumin was aspirated from the acute pole of the egg to create false air sac directly over the CAM. Post fertilization (Day 8), a fine blade was used to make an approximate 0.5 cc square incision on the eggshell under sterile conditions and the eggshell window fragment was removed to access the CAM beneath. A piece of gelatin sponge embedded in Compound 1 (500 nM and 250 nM) and sunitinib (2 μM) individually were placed on the CAM of the chicken embryo and incubated for 12 days. Sterile parafilm tape was used to seal back the window and the eggs were further incubated without the rotation setting. After 12 days of incubation the CAM integration was assessed by visual inspection and photographed with a digital camera (Canon EOS); the CAM membrane along with gelatin sponge were harvested and its hemoglobin (Hb.) estimation was done by Drabkin's method according to the manufacturer's protocol (Sigma, St. Louis, Mo.). Absorbance was measured at 540 nm and hemoglobin concentration was calculated.

SMILES: CCOC(=O)C1N=C1CCc1ccc(OC)cc1 (racemic) [Compound 1, Ethyl 3-(4-methoxyphenethyl)-2H-azirine-2-carboxylate]
- CD31 expression and micro-vessels density (Balb/c mice): reduced CD31 expression and micro-vessels density
- tumor volume (HCT116 colon tumor; 25 mg/kg IP route for 21 days, vs vehicle): progressive significant decrease in tumor volume
- growth of HCT116 cells xenografts (HCT116 colon tumor; 25 mg/kg, 15 days): powerful inhibitory effect
- T/C (HCT116 colon tumor; 25 mg/kg, day 2): 94.77%
- T/C (HCT116 colon tumor; 25 mg/kg, day 4): 72.79%
- T/C (HCT116 colon tumor; 25 mg/kg, day 6): 67.93%
- T/C (HCT116 colon tumor; 25 mg/kg, day 8): 66.22%
- T/C (HCT116 colon tumor; 25 mg/kg, day 10): 68.70%
- T/C (HCT116 colon tumor; 25 mg/kg, day 12): 56.83%
- T/C (HCT116 colon tumor; 25 mg/kg, day 14): 49.80%
- T/C (HCT116 colon tumor; 25 mg/kg, day 16): 43.88%
- vascular density in tumor tissues (CD31) (HCT116 colon tumor; 25 mg/kg, vs control group): reduced the vascular density in tumor tissues
- tumor reduction (HCT116 colon tumor; in comparison to vehicle treated control group, end of experiment): 62.02%
- tubule formation (HUVECs; 75 nM): 100%
- tubulogenesis in 3D angiogenesis (HUVECs; 500 nM, 250 nM, 125 nM and 75 nM vs control): tubulogenesis inhibitory effect
- blood vessels density (chick CAM): suppressed blood vessels density
- hemoglobin content (chick CAM): 50 to 60 µg/mL
